Data published in patent US10730905B2, “Substituted heteropentadieno-pyrrolopyrimidine ribonucleosides for therapeutic use” (USTAV ORGANICKE CHEMIE A BIOCHEMIE AV CR, V.V.I., priority 2016, dated 2020).

Legend:
[1] = MTT cytotoxic test, MRC-5; type: cell-based; settings: MRC-5 cells (normal fibroblasts), MRC-5 normal human fibroblasts
[2] = test system: K562-Tax (human acute myeloid leukemia, paclitaxel resistant subline); test: MTT cytotoxic test, K562-TAX; type: cell-based; settings: K562-TAX cells
Text: (§1) MTT test (Nosková V. et al., Neoplasma 2002, 49, 418-425) was used for in vitro evaluation of antitumor activities of newly synthesized compounds on cell lines derived from normal tissues or tumors. Specifically, cell lines K562 (human acute myeloid leukemia); K562-Tax (human acute myeloid leukemia, paclitaxel resistant subline, overexpress multiple drug resistant protein PgP); CEM (T-lymfoblastic leukemia); CEM-DNR-bulk (T-lymfoblastic leukemia, doxorubicin resistant); A549 (human lung adenocarcinoma); HCT116p53 wt (human colorectal cancer, wild-type); HCT116p53−/− (human colorectal cancer, mutant p53) a U2OS (human bone osteosarcoma) were used. Express characteristics, susceptibility profiles of classic antitumor drugs as well as methodology of cytotoxic MTT test have been repeatedly published (Denizot, F.; Lang, R., J. Immunol. Meth. 1986, 89, 271-277; Noskova, V., see above; S̆arek J. et al., J, Med. Chem., 2003).

[3] = test system: A549 (human lung adenocarcinoma); test: MTT cytotoxic test, A549; type: cell-based; settings: A549 cells
Text: as §1

[4] = test system: U2OS (human bone osteosarcoma); test: MTT cytotoxic test, U2OS; type: cell-based; settings: U2OS cells
Text: as §1

[5] = test system: CEM-DNR-bulk (T-lymfoblastic leukemia, doxorubicin resistant); test: MTT cytotoxic test, CEM-DNR; type: cell-based; settings: Homo sapiens, CEM-DNR cells
Text: as §1

[6] = test system: HCT116p53−/− (human colorectal cancer, mutant p53); test: MTT cytotoxic test, HCT116p53; type: cell-based; settings: HCT116p53 cells (p53 −/−)
Text: as §1

[7] = test system: K562 (human acute myeloid leukemia); test: MTT cytotoxic test, K562; type: cell-based; settings: K562 cells
Text: as §1

[8] = test system: HCT116p53 wt (human colorectal cancer, wild-type); test: MTT cytotoxic test, HCT116; type: cell-based; settings: HCT-116, HCT116 cells, p53 wild type
Text: as §1

[9] = test system: CCRF-CEM (CEM, T-lymfoblastic leukemia); test: MTT cytotoxic test, CCRF-CEM; type: cell-based; settings: Homo sapiens, CCRF-CEM cells
Text: as §1

| Structure (SMILES) | IC50 [1] [µM] | IC50 [2] [µM] | IC50 [3] [µM] | IC50 [4] [µM] | IC50 [5] [µM] | IC50 [6] [µM] | melting point | IC50 [7] [µM] | IC50 [8] [µM] | IC50 [9] [µM] |
| --- | --- | --- | --- | --- | --- | --- | --- | --- | --- | --- |
| Nc1ncnc2c1c1occc1n2[C@@H]1O[C@H](CO)[C@@H](O)[C@H]1O [Compound 1d, 8-(β-D-ribofuranosyl)-8H-furo[2′,3′:4,5]pyrrolo[2,3-d]pyrimidin-4-amine] | 25 to 50 | 25 to 50 | 25 to 50 | 0.9 to 10 | 25 to 50 | 25 to 50 | 246 to 253 °C | 0.9 to 10 | 25 to 50 | 25 to 50 |
| OC[C@H]1O[C@@H](n2c3ccoc3c3c(-c4cc5ccccc5o4)ncnc32)[C@H](O)[C@@H]1O [Compound 1g, 4-(Benzofuran-2-yl)-8-(β-D-ribofuranosyl)-8H-furo[2′,3′:4,5]pyrrolo[2,3-d]pyrimidine] | 25 to 50 | 10 to 25 | 25 to 50 | 25 to 50 | 25 to 50 | 25 to 50 | – | 25 to 50 | 25 to 50 | 10 to 25 |
| Cn1ccc2c1c1c(-c3cc4ccccc4o3)ncnc1n2[C@@H]1O[C@H](CO)[C@@H](O)[C@H]1O [Compound 2g, 4-(Benzofuran-2-yl)-5-methyl-8-(β-D-ribofuranosyl)-5,8-dihydropyrrolo[2′,3′:4,5]pyrrolo[2,3-d]pyrimidine] | 25 to 50 | 25 to 50 | 25 to 50 | 25 to 50 | 25 to 50 | 25 to 50 | 145 to 154 °C | 25 to 50 | 25 to 50 | 10 to 25 |
| Cn1ccc2c1c1c(N)ncnc1n2[C@@H]1O[C@H](CO)[C@@H](O)[C@H]1O [Compound 2d, 5-methyl-8-(β-D-ribofuranosyl)-5,8-dihydropyrrolo[2′,3′:4,5]pyrrolo[2,3-d]pyrimidin-4-amine] | 25 to 50 | 25 to 50 | 25 to 50 | 25 to 50 | 25 to 50 | 25 to 50 | 240 to 245 °C (dec.) | 25 to 50 | 25 to 50 | 25 to 50 |
| CN(C)c1ncnc2c1c1occc1n2[C@@H]1O[C@H](CO)[C@@H](O)[C@H]1O [Compound 1h, N,N-dimethyl-8-(β-D-ribofuranosyl)-8H-furo[2′,3′:4,5]pyrrolo[2,3-d]pyrimidin-4-amine] | 25 to 50 | 25 to 50 | 25 to 50 | 25 to 50 | 25 to 50 | 25 to 50 | 212 to 255 °C (dec.) | 25 to 50 | 25 to 50 | 25 to 50 |
| Cc1ncnc2c1c1occc1n2[C@@H]1O[C@H](CO)[C@@H](O)[C@H]1O [Compound 1a, 4-Methyl-8-(β-D-ribofuranosyl)-8H-furo[2′,3′:4,5]pyrrolo[2,3-d]pyrimidine] | 25 to 50 | 0.9 to 10 | 0.9 to 10 | 0.2 to 0.9 | 25 to 50 | 0.2 to 0.9 | – | 0.2 to 0.9 | 0.2 to 0.9 | 0.2 to 0.9 |
| CSc1ncnc2c1c1c(ccn1C)n2[C@@H]1O[C@H](CO)[C@@H](O)[C@H]1O [Compound 2c, 5-Methyl-4-(methylsulfanyl)-8-(β-D-ribofuranosyl)-5,8-dihydropyrrolo[2′,3′:4,5]pyrrolo-[2,3-d]-pyrimidine] | 25 to 50 | 25 to 50 | 25 to 50 | 0.9 to 10 | 25 to 50 | 0.2 to 0.9 | 212 to 214 °C | 0.2 to 0.9 | 0.2 to 0.9 | 0.2 to 0.9 |
| CN(C)c1ncnc2c1c1c(ccn1C)n2[C@@H]1O[C@H](CO)[C@@H](O)[C@H]1O [Compound 2h, N,N,5-trimethyl-8-(β-D-ribofuranosyl)-5,8-dihydropyrrolo[2′,3′:4,5]pyrrolo[2,3-d]pyrimidin-4-amine] | 25 to 50 | 25 to 50 | 25 to 50 | 25 to 50 | 25 to 50 | 25 to 50 | 99 to 106 °C | 25 to 50 | 25 to 50 | 25 to 50 |
| OC[C@H]1O[C@@H](n2c3ccoc3c3c(-c4ccoc4)ncnc32)[C@H](O)[C@@H]1O [Compound 1f, 4-(Furan-3-yl)-8-(β-D-ribofuranosyl)-8H-furo[2′,3′:4,5]pyrrolo[2,3-d]pyrimidine] | 25 to 50 | 0.9 to 10 | 25 to 50 | 0.2 to 0.9 | 25 to 50 | 10 to 25 | – | 0.2 to 0.9 | 10 to 25 | 0.2 to 0.9 |
| Cc1ncnc2c1c1c(ccn1C)n2[C@@H]1O[C@H](CO)[C@@H](O)[C@H]1O [Compound 2a, 4,5-Dimethyl-8-(β-D-ribofuranosyl)-5,8-dihydropyrrolo[2′,3′:4,5]pyrrolo[2,3-d]pyrimidine] | 25 to 50 | 25 to 50 | – | 0.2 to 0.9 | 25 to 50 | 0.2 to 0.9 | 237 to 241 °C | 0.2 to 0.9 | 0.2 to 0.9 | 0.2 to 0.9 |
| COc1ncnc2c1c1c(ccn1C)n2[C@@H]1O[C@H](CO)[C@@H](O)[C@H]1O [Compound 2b, 4-Methoxy-5-methyl-8-(β-D-ribofuranosyl)-5,8-dihydropyrrolo[2′,3′:4,5]pyrrolo[2,3-d]pyrimidine] | 25 to 50 | 25 to 50 | 25 to 50 | 0.9 to 10 | 25 to 50 | 0.2 to 0.9 | 231 to 234 °C | 0.2 to 0.9 | 0.2 to 0.9 | 0.2 to 0.9 |
| COc1ncnc2c1c1occc1n2[C@@H]1O[C@H](CO)[C@@H](O)[C@H]1O [Compound 1b, 4-Methoxy-8-(β-D-ribofuranosyl)-8H-furo[2′,3′:4,5]pyrrolo[2,3-d]pyrimidine] | 10 to 25 | 0.2 to 0.9 | 0.9 to 10 | 0.2 to 0.9 | 0.9 to 10 | 0.2 to 0.9 | 216 to 219 °C | 0.2 to 0.9 | 0.2 to 0.9 | 0.01 to 0.2 |
| Cn1ccc2c1c1c(-c3ccco3)ncnc1n2[C@@H]1O[C@H](CO)[C@@H](O)[C@H]1O [Compound 2e, 4-(Furan-2-yl)-5-methyl-8-(β-D-ribofuranosyl)-5,8-dihydropyrrolo[2′,3′:4,5]pyrrolo[2,3-d]pyrimidine] | 25 to 50 | 25 to 50 | 25 to 50 | 0.9 to 10 | 25 to 50 | 25 to 50 | 245 to 253 °C | 25 to 50 | 25 to 50 | 25 to 50 |
| OC[C@H]1O[C@@H](n2c3ccoc3c3c(-c4ccco4)ncnc32)[C@H](O)[C@@H]1O [Compound 1e, 4-(Furan-2-yl)-8-(β-D-ribofuranosyl)-8H-furo[2′,3′:4,5]pyrrolo[2,3-d]pyrimidine] | 25 to 50 | 0.9 to 10 | 25 to 50 | 0.9 to 10 | 25 to 50 | 25 to 50 | – | 0.9 to 10 | 25 to 50 | 0.2 to 0.9 |
